Experimental findings from patent US9573913B2, “Cathepsin cysteine protease inhibitors” (Merck Sharp & Dohme Corp., priority 2013, dated 2017) are described below.

Each structure is given as a SMILES string.

The target of one assay is human cathepsin K (UniProt P43236). Briefly: Cathepsin K Assay (hrbCat K). To be noted: Z-Leu-Arg-AMC substrate, pH 5.5, 15 min preincubation; read-out: hrbCat K (IP (nM)). The class given is biochemical. The gist of the method: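 Human cathepsin K (0.4 nM) was preincubated 15 min at room temperature with compound in 50 mM MES pH 5.5, 2.5 mM EDTA, 2.5 mM DTT and 10% DMSO. Inhibition was fitted to a dose-response model.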

The target of the next assay is T1, human cathepsin F (Homo sapiens, UniProt Q9UBX1).
T1 sequence (Q9UBX1 271-484): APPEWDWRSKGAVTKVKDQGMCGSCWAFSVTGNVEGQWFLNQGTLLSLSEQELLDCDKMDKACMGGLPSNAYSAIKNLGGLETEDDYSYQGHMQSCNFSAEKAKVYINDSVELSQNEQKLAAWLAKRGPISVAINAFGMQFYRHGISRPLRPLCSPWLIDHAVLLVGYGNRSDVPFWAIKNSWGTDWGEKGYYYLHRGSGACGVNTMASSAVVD
Briefly: Cathepsin F assay (hCat F). The class given is biochemical. The following applies: Z-Phe-Arg-AMC substrate, pH 5.5, 15 min preincubation; read-out: hCat F (IP (nM)). The method, boiled down: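 AMC release from Z-Phe-Arg-AMC, added at 8 μM, was monitored fluorometrically (360/460 nm) for 20 min after 10 nM enzyme and compound had been preincubated 15 min at room temperature. Buffer: MES 50 mM pH 5.5, EDTA and DTT 2.5 mM each, 10% DMSO. Compound DMSO dilutions spanned 500–0.025 μM (3-fold). Dose-response fitting gave % inhibition.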

In the case of `N#CC1(NC(=O)[C@@H]2CCCC[C@H]2c2nc(C3CCOC3)sc2-c2ccc(N3CCS(=O)(=O)CC3)cc2)CC1` (mixture of isomers) [Example 147, (1R,2R)-N-(1-cyanocyclopropyl)-2-(5-(4-(1,1-dioxidothiomorpho-lino)phenyl)-2-((R and S)-tetrahydrofuran-3-yl)thiazol-4-yl)cyclohexane-carboxamide], the IC50 stood at 4.5 nM at human cathepsin K and 1000 nM at human cathepsin F.
With `N#CCNC(=O)C1CCCCC1c1nc(-c2ccccc2)sc1-c1ccc(N2CCS(=O)(=O)CC2)cc1` (racemic) [Example 247, N-(cyanomethyl)-2-(5-(4-(1,1-dioxidothiomorpho-lino)phenyl)-2-phenylthiazol-4-yl)cyclohexane-carboxamide], the IC50 on human cathepsin K turned out to be 2.1 nM; at human cathepsin F, 229 nM.
The matching figures for `CC(C)(C)c1nc([C@@H]2CCCC[C@H]2C(=O)NCC#N)c(-c2ccc(N3CCS(=O)(=O)CC3)cc2)s1` [Example 19, (1R,2R)-2-(2-(tert-butyl)-5-(4-(1,1-dioxidothiomorpho-lino)phenyl)thiazol-4-yl)-N-(cyanomethyl)cyclo-hexanecarboxamide]: 0.7 nM and 851 nM.
For `Cc1nc([C@@H]2CC[C@H](F)C[C@H]2C(=O)NC2(C#N)CC2)c(-c2ccc(N3CCC(S(C)(=O)=O)CC3)cc2)s1` [Example 243, (1R,2R,5S)-N-(1-cyanocyclopropyl)-5-fluoro-2-(2-methyl-5-(4-(4-(methylsulfonyl)piperidin-1-yl)phenyl)thiazol-4-yl)cyclohexane-carboxamide], in that order: 5.3 nM and 8430 nM.
The matching figures for `N#CC1(NC(=O)[C@@H]2C[C@@H](F)CC[C@H]2c2nc(-c3cncc(F)c3)sc2-c2ccc(N3CCS(=O)(=O)CC3)cc2)CC1` [Compound 7, (1R,2R,5S)-N-(1-cyanocyclopropyl)-2-(5-(4-(1,1-dioxidothiomorpholino)phenyl)-2-(5-fluoropyridin-3-yl)thiazol-4-yl)-5-fluorocyclohexanecarboxamide]: 0.9 nM and 1920 nM.
For `N#CC1(NC(=O)[C@@H]2CC(F)(F)CC[C@H]2c2nc(-c3ccc(F)cc3)sc2-c2ccc(N3CCS(=O)(=O)CC3)cc2)CC1` [Example 26, (1R,2R)-N-(1-cyanocyclopropyl)-2-(5-(4-(1,1-dioxidothiomorpho-lino)phenyl)-2-(4-fluorophenyl)thiazol-4-yl)-5,5-difluorocyclohexane-carboxamide], the figures for the IC50 on human cathepsin K and on human cathepsin F were 0.3 nM and 35 nM, respectively.
The matching figures for `N#CC1(NC(=O)[C@@H]2CC3CC3C[C@H]2c2nc(-c3cncc(F)c3)sc2-c2ccc(N3CCS(=O)(=O)CC3)cc2)CC1` (single isomer, unassigned) [Example 111, (1S or 1R,3R,4R,6R or 6S)-N-(1-cyanocyclopropyl)-4-(5-(4-(1,1-dioxidothiomorpho-lino)phenyl)-2-(5-fluoropyridin-3-yl)thiazol-4-yl)bicyclo[4.1.0] heptane-3-carboxamide]: 0.7 nM and 225 nM.
On to `CNC(=O)N1CC(c2ccc(-c3sc(-c4ccc(F)cc4)nc3[C@@H]3CCCC[C@H]3C(=O)NC3(C#N)CC3)cc2)C1` [Example 143, 3-(4-(4-((1R,2R)-2-((1-cyanocyclopropyl)carbamoyl)cyclohex-yl)-2-(4-fluorophenyl)thiazol-5-yl)phenyl)-N-methylazetidine-1-carboxamide], for which the IC50 at human cathepsin K was determined as 2 nM; at human cathepsin F, 134 nM.
For `N#CC1(NC(=O)[C@@H]2CCCC[C@H]2c2nc(N3CCO[C@@H](C(F)(F)F)C3)sc2-c2ccc(N3CCS(=O)(=O)CC3)cc2)CC1` [Example 144, (1R,2R)-N-(1-cyanocyclopropyl)-2-(5-(4-(1,1-dioxidothiomorpho-lino)phenyl)-2-((R)-2-(trifluoromethyl)morpholino)thiazol-4-yl)cyclohexane-carboxamide], in that order: 3.3 nM and 5280 nM.
As for `COc1cnc(-c2nc([C@@H]3CCCC[C@H]3C(=O)NC3(C#N)CC3)c(-c3ccc(N4CCS(=O)(=O)CC4)cc3)s2)c(OC)c1` [Example 59, (1R,2R)-N-(1-cyanocyclopropyl)-2-(2-(3,5-dimethoxypyridin-2-yl)-5-(4-(1,1-dioxidothiomorpho-lino)phenyl)thiazol-4-yl)cyclohexane-carboxamide], the IC50 on human cathepsin K was 45.1 nM; on human cathepsin F, no less than 10000 nM.
With `N#CC1(NC(=O)[C@@H]2CCCC[C@H]2c2nc(-c3ccc(F)cc3)sc2-c2ccc(C3CN(C(=O)NCC(F)(F)F)C3)cc2)CC1` [Example 150, 3-(4-(4-((1R,2R)-2-((1-cyanocyclopropyl)carbamoyl)cyclohex-yl)-2-(4-fluorophenyl)thiazol-5-yl)phenyl)-N-(2,2,2-trifluoroethyl) azetidine-1-carboxamide], the IC50 was 1.6 nM at human cathepsin K and 110 nM at human cathepsin F.
The matching figures for `N#CC1(NC(=O)[C@@H]2CCCC[C@H]2c2nc(C(O)C(F)(F)F)sc2-c2ccc(N3CCS(=O)(=O)CC3)cc2)CC1` (mixture of isomers) [Example 228, (1R,2R)-N-(1-cyanocyclopropyl)-2-(5-(4-(1,1-dioxidothiomorpho-lino)phenyl)-2-((R and S)-2,2,2-trifluoro-1-hydroxyethyl)thia-zol-4-yl)cyclohexane-carboxamide]: 5.1 nM and 5390 nM.
For `N#CC1(NC(=O)[C@@H]2CCCC[C@H]2c2nc(C3CCCCO3)sc2-c2ccc(N3CCS(=O)(=O)CC3)cc2)CC1` (mixture of isomers) [Example 148, (1R,2R)-N-(1-cyanocyclopropyl)-2-(5-(4-(1,1-dioxidothiomorpho-lino)phenyl)-2-((R and S)-tetrahydro-2H-pyran-2-yl)thiazol-4-yl)cyclohexane-carboxamide], in that order: 2.6 nM and 1930 nM.
For `N#CC1(NC(=O)[C@@H]2CC(F)(F)CC[C@H]2c2nc(-c3ccc(F)cc3)sc2-c2ccc(C(=O)N3CCOCC3)cc2)CC1` [Example 28, (1R,2R)-N-(1-cyanocyclopropyl)-5,5-difluoro-2-(2-(4-fluorophenyl)-5-(4-(morpholine-4-carbonyl)phenyl)thi-azol-4-yl)cyclohexane-carboxamide], in that order: 2.3 nM and 63 nM.
With `Cc1nc([C@@H]2CC[C@H](F)C[C@H]2C(=O)NC2(C#N)CC2)c(-c2ccc(N3CCC(F)(F)CC3)cc2)s1` [Example 240, (1R,2R,5S)-N-(1-cyanocyclopropyl)-2-(5-(4-(4,4-difluoropiperidin-1-yl)phenyl)-2-methylthiazol-4-yl)-5-fluorocyclohexane-carboxamide], the IC50 was determined as 8 nM at human cathepsin K and 7120 nM on human cathepsin F.
Regarding `CC(C)(O)c1nc([C@@H]2CCCC[C@H]2C(=O)NC2(C#N)CC2)c(-c2ccc(N3CCS(=O)(=O)CC3)cc2)s1` [Example 208, (1R,2R)-N-(1-cyanocyclopropyl)-2-(5-(4-(1,1-dioxidothiomorpho-lino)phenyl)-2-(2-hydroxypropan-2-yl)thiazol-4-yl)cyclohexane-carboxamide], the IC50 at human cathepsin K was 7.9 nM; on human cathepsin F, no less than 10000 nM.
